These are literature values, as cited in patent US20130251696A1, “Antioxidant Composition for Reducing Oxidative Stress Ascribable to the Treatment with Hormonal Contraceptive Drugs” (COR.CON. INTERNATIONAL S.R.L., priority 2010, published 2013).

For this data set the following is noted: principal organs (heart, brain, liver, uterus etc.).

On to `O=C(O[C@@H]1Cc2c(O)cc(O)cc2O[C@@H]1c1cc(O)c(O)c(O)c1)c1cc(O)c(O)c(O)c1` [EGCG, epigallocatechin gallate], for which the “tissue levels as % of blood levels” value is 8-10%.
